Results on 20 compounds are retold here after patent US20040198743A1 (Schering Corporation, priority 2003, published 2004).

One assay deals with T1, Histamine Receptor H3 (Homo sapiens, UniProt Q9Y5N1).
T1 construct: expressed in transfected cells; host or cells: HEK293
The experiment in a line: Membrane binding assay, [3H]-N'-methylhistamine for H3 binding. As for the experimental part:
(§1) Materials. Rat and guinea-pig brains were obtained frozen from Rockland Immunochemicals (Gilbertsville, Pa.). Cell lines expressing recombinant human receptors were generated by using standard transfection techniques. The following radioligands were obtained from Dupont NEN (Boston, Mass.): [^3H]-pyrilamine, 23 Ci/mmol for H 1 binding and [^3H]-N′-methylhistamine, 82 Ci/mmol for H3 binding.
(§2) Methods. Recombinant cell lines (i.e., human H1—CHO cells and human H3-HEK293) were cultured in Dulbecco's modified Eagle's medium/10% fetal bovine serum supplemented with 2 mM glutamine, penicillin (100 U/ml), and streptomycin (100 μg/ml) in a humidified 5% CO2 atmosphere at 37° C. Selection was maintained with 0.5 mg geneticin/ml. Cells were harvested for membrane preparation by aspirating media, replacing it with Hanks' balanced salt solution/5 mM EDTA, and incubating flasks for 10 minutes at 37° C. Cells were pelleted by centrifugation at 1000×g for ten minutes at 4° C.
(§3) Membrane preparation. Membranes were prepared by disrupting cells or tissue in at least ten volumes of ice-cold 50 mM Tris-HCl, pH 7.5 at 25° C., with a Polytron. Homogenates were centrifuged ten minutes at 1000×g and the supernatants were then centrifuged for ten minutes at 50,000×g. Pellets from this centrifugation step were resuspended with a Polytron, a sample was taken for protein determination (BCA; Pierce; Rockford, Ill.), and the resuspension was again centrifuged at 50,000×g. Brain membranes were stored as pellets, cell membranes as suspensions of 1 mg protein/ml Tris buffer at −20° C.
(§4) Binding assays. […] Nonspecific binding was determined in the presence of 10^−6 M chlorpheniramine for H1 binding or 10^−6 M clobenpropit for H3 binding. Assay mixtures were incubated for 30 minutes at 30° C. in polypropylene, 96-well, deep-well plates then filtered through 0.3% polyethylenimine-soaked GF/B filters. These were washed three times with 1.2 ml of Tris buffer, dried in a microwave oven, impregnated with Meltilex wax scintillant and counted at 40% efficiency in a Betaplate scintillation counter (Wallac). IC50 values were determined by interpolation or by nonlinear, least-squares, curve-fitting with the Prism program (GraphPad Software). Ki values were determined in the manner of Cheng and prusoff (Cheng, et al., (1973) Biochem. Pharm. 22:3099-3108).

For the next assay, the target named is T2, Histamine Receptor H1 (Homo sapiens, UniProt P35367).
T2 construct: expressed in transfected cells; host or cells: CHO
The experiment in a line: Membrane binding assay, [3H]-pyrilamine for H1 binding. As to the method: as §1, §2, §3, §4

The test system of assay [1] is cutaneous microvascular permeability produced by compound 48/80. As to the kind of experiment: Cutaneous microvascular permeability (Evans blue extravasation) elicited by intradermal compound 48/80. In kind it is in vivo, guinea pig. The settings on record: for effect on baseline Evans blue leakage (dye leakage due to i.d. saline administration): CTM 1.0 mg/kg, THIO 1.0 mg/kg, CLOB 0.3 mg/kg, i.v.; for % Inhibition of Compound 48/80 Skin Responses: treatment i.v. 10 minutes before, each drug 1 mg/kg in Table 3, mean ± SEM; for effect of H3 antagonist alone on cutaneous permeability elicited by compound 48/80: THIO 1.0 mg/kg i.v., CLOB 0.3 mg/kg i.v., given alone.

Where “and” joins values, the source holds several entries; their conditions need not be identical. Equal entries are not always repeated.

T1 sequence (Q9Y5N1 whole entry): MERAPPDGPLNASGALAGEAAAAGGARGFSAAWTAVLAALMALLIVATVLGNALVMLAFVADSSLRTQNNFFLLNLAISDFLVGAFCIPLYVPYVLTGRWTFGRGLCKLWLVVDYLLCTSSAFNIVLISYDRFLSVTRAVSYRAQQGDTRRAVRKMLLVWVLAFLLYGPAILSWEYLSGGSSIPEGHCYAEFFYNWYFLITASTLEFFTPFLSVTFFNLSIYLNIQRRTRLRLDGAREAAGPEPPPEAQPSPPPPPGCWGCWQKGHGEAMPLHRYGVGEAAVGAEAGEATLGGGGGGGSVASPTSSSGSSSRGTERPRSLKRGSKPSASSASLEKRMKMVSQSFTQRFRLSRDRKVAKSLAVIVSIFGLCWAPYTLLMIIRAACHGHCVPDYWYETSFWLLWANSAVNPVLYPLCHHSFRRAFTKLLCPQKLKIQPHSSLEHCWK
T2 sequence (P35367 whole entry): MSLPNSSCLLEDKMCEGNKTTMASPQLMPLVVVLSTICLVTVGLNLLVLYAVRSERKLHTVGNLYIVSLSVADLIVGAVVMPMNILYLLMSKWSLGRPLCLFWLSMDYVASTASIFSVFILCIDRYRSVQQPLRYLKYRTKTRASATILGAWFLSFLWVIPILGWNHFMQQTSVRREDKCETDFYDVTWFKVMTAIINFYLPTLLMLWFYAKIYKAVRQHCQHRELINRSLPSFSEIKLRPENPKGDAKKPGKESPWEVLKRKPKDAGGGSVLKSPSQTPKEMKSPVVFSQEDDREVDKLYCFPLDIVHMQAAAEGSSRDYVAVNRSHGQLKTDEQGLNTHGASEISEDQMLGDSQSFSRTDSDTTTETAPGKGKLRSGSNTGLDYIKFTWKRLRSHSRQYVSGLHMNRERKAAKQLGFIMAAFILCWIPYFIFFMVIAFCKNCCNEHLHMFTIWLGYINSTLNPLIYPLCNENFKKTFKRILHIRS

What is called Ki is the dissociation constant of the complex between target and ligand, obtained from inhibition or displacement. Read a low Ki as tighter binding. For the compound `Clc1ccc(C(CCNCCCCc2c[nH]cn2)c2ccccn2)cc1` (stereo not shown) [Formula 28], the values for the inhibition constant Ki at Histamine Receptor H3 and on Histamine Receptor H1 were 10 nM and 310 nM, respectively.
The compound `O=C(/C=C/c1ccc(Cc2c[nH]cn2)cc1)NCCc1ccc(Cl)cc1` [Formula 33] registered a Ki at Histamine Receptor H3 of 7 nM.
As to `Clc1ccc(C(=C2CCN(CCCCCc3c[nH]cn3)CC2)c2ccccn2)cc1` [Formula 29], the values for the Ki on Histamine Receptor H3 and at Histamine Receptor H1 were 8 nM and 5 nM, respectively.
`O=C(c1cnc2ccccc2c1)N1CCC(Cc2c[nH]cn2)CC1` [Formula 17] came in with an inhibitory constant (Ki) at Histamine Receptor H3 of 55 nM. In other words, the double-digit nanomolar range.
Same read-out and setting: then `O=C(NCCCCc1c[nH]cn1)C1(c2ccc(Cl)cc2)CCC1` [Formula 32], with 19 nM.
As for `O=C(CCN1CCC(Cc2c[nH]cn2)CC1)NCCc1ccc(Cl)cc1` [Formula 23], at Histamine Receptor H3, the affinity corresponds to a Ki of 0.7 nM. Compared with the last compound, the Ki is about 27-fold lower.
Turning to `Clc1ccc(C(=C2CCN(CCCCc3c[nH]cn3)CC2)c2ccccn2)cc1` [Formula 26], the inhibition constant Ki worked out at 3 nM at Histamine Receptor H3 and 2 nM on Histamine Receptor H1.
At Histamine Receptor H3, `O=C(NCc1ccc(Cc2c[nH]cn2)cc1)Nc1cc(Cl)cc(Cl)c1` [Formula 24] returned an inhibition constant Ki of 15 nM.
For the compound `O=C(CCN1CCC(Cc2c[nH]cn2)CC1)Nc1cccc(Cl)c1` [Formula 20], the Ki at Histamine Receptor H3 amounted to 0.8 nM; at Histamine Receptor H1 it was 330 nM.
`C/C(=C\C(=O)Nc1ccc(Cl)cc1)c1ccc(Cc2c[nH]cn2)cc1` [Formula 31] came in with an inhibitory constant (Ki) on Histamine Receptor H3 of 470 nM.
Still for that read-out and setting: then `CC(C)(C)CCC#C[C@@H]1C[C@H]1c1c[nH]cn1` [Formula 19], with 3 nM.
In the case of `O=S(=O)(c1ccc(Cl)cc1)N1CCC(CCc2c[nH]cn2)C1` (stereo not shown) [Formula 21], the inhibitory constant (Ki) at Histamine Receptor H3 was found to be 6 nM; at Histamine Receptor H1, 660 nM.
Compound `CN1CCC(N(C)Cc2ccc(OCCCN3CCC(Cc4c[nH]cn4)CC3)cc2)CC1` [Formula 25] showed a Ki at Histamine Receptor H3 of 4 nM.
For the compound `c1ccc2c(c1)C1CC(CNCCCCc3c[nH]cn3)C2c2ccccc21` (stereo not shown) [Formula 27], the Ki on Histamine Receptor H3 amounted to 19 nM.
As to `CN(C)CCC(c1ccc(Cl)cc1)c1ccccn1` (stereo not shown) [CTM, chlorpheniramine], the “effect on baseline Evans blue leakage (dye leakage due to i.d. saline administration)” value (“effect on baseline Evans blue leakage” below) in assay [1] is reported as “Neither CTM (1.0 mg/kg, i.v.), THIO (1.0 mg/kg, i.v.) nor CLOB (0.3 mg/kg, i.v.) had any effect”. The “% Inhibition of Compound 48/80 Skin Responses” value in assay [1] (cpd 48/80 0.0003% i.d.) is 17%±4% and 17.3 ± 3.6%; in assay [1] (cpd 48/80 0.001% i.d.) it was 31%±4% and 31.5 ± 3.7 %; in assay [1] (cpd 48/80 0.003% i.d.), 32%±4% and 31.8 ± 3.8 %; in assay [1] (cpd 48/80 0.01% i.d.) it was 37%±4% and 36.7 ± 3.8 %.
On Histamine Receptor H3, `CC(C)(C)c1ccc(S(=O)(=O)NCCCCc2c[nH]cn2)cc1` [Formula 30] displayed a Ki of 17 nM.
As for `c1nc(CC2CCN(CCCOc3ccc(CN4CCCCC4)cc3)CC2)c[nH]1` [Formula 22], the results for the Ki on Histamine Receptor H3 and at Histamine Receptor H1 were 3 nM and 29 nM, respectively.
In the case of `S=C(NC1CCCCC1)N1CCC(c2cnc[nH]2)CC1` [Thioperamide, thioperamide], the “effect on baseline Evans blue leakage” value in assay [1] is given as “Neither CTM (1.0 mg/kg, i.v.), THIO (1.0 mg/kg, i.v.) nor CLOB (0.3 mg/kg, i.v.) had any effect”. The “effect of H3 antagonist alone on cutaneous permeability elicited by compound 48/80” value in assay [1] (listed as THIO) is “no observable effect”; in assay [1] (listed as thioperamide) it was “does not alter”.
With `O=C(c1ccccn1)N1CCC(Cc2c[nH]cn2)CC1` [Formula 18], on Histamine Receptor H3, the Ki is 2 nM.
As for `NC(=NCc1ccc(Cl)cc1)SCCCc1cnc[nH]1` [Clobenpropit, clobenpropit], the “effect on baseline Evans blue leakage” value in assay [1] is recorded as “Neither CTM (1.0 mg/kg, i.v.), THIO (1.0 mg/kg, i.v.) nor CLOB (0.3 mg/kg, i.v.) had any effect”. Further, the “effect of H3 antagonist alone on cutaneous permeability elicited by compound 48/80” value is given as “no observable effect” in assay [1] (listed as CLOB) and “does not alter” in assay [1] (listed as clobenpropit).
